These results are taken from PMC8578332 (Scientific Reports, 2021).

Where a SMILES comes first, the peptide text is derived from it. Bridges are numbered along the chain shown (N, C = ends).

human α7-containing nAChRs, sequence (P36544 23-502 limits assumed): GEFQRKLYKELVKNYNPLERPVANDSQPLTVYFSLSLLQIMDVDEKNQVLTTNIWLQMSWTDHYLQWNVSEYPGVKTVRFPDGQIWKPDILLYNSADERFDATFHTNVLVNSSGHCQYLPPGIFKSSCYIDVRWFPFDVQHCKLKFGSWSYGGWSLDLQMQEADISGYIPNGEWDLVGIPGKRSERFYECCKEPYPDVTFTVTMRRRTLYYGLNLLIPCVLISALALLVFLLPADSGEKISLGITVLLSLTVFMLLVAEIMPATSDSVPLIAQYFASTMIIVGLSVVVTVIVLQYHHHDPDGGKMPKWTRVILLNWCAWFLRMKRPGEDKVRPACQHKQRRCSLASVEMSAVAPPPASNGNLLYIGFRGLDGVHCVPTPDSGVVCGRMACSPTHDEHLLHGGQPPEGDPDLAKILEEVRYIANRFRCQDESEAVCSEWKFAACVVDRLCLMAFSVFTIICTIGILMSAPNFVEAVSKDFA

One assay has as its target human α7-containing nAChRs (Homo sapiens, UniProt P36544). Nature of the assay: cell-based. It counts as cell-based.
Details: not given
Usually IC50 stands for the concentration that inhibits the measured activity by half. The low end stands for greater potency, the high end for weaker potency. As to `CC(C)C[C@@H]1NC(=O)[C@H](CCCNC(=N)N)NC(=O)[C@@H]2CSSC[C@H](NC(=O)[C@@H](N)CO)C(=O)N[C@@H](CSSC[C@@H](C(=O)N[C@H](C(N)=O)C(C)C)NC(=O)[C@@H]3CCCN3C(=O)[C@H](Cc3c[nH]cn3)NC(=O)[C@H](CC(N)=O)NC1=O)C(=O)N[C@@H](C)C(=O)N[C@@H](CCCNC(=N)N)C(=O)N[C@@H](CC(N)=O)C(=O)N1CCC[C@H]1C(=O)N[C@@H](C)C(=O)N2` [gAusIA [H11L]] (H-SCCARNPACRLNHPCV-NH2; disulfide 2-9, 3-15), the IC50 is more than 100 µM and the “antagonistic activity / potency at α7-containing nAChRs in words” value is “inactive”. `CC(C)[C@H](NC(=O)[C@@H]1CSSC[C@@H]2NC(=O)[C@@H](NC(=O)[C@@H](N)CO)CSSC[C@H](NC(=O)[C@H](C)NC(=O)[C@H](C)NC(=O)[C@H](CC(N)=O)NC(=O)[C@H](CCCNC(=N)N)NC(=O)[C@H](C)NC2=O)C(=O)N[C@@H](CCCNC(=N)N)C(=O)N[C@@H](Cc2c[nH]cn2)C(=O)N[C@@H](CC(N)=O)C(=O)N[C@@H](Cc2c[nH]cn2)C(=O)N2CCC[C@H]2C(=O)N1)C(N)=O` [gAusIA [P7A]] (H-SCCARNAACRHNHPCV-NH2; disulfide 2-9, 3-15) had an IC50 of more than 100 µM. `CC(C)[C@H](NC(=O)[C@@H]1CSSC[C@@H]2NC(=O)[C@@H](NC(=O)[C@@H](N)CO)CSSC[C@H](NC(=O)[C@H](C)NC(=O)[C@@H]3CCCN3C(=O)[C@H](CC(N)=O)NC(=O)[C@H](C)NC(=O)[C@H](C)NC2=O)C(=O)N[C@@H](CCCNC(=N)N)C(=O)N[C@@H](Cc2c[nH]cn2)C(=O)N[C@@H](CC(N)=O)C(=O)N[C@@H](Cc2c[nH]cn2)C(=O)N2CCC[C@H]2C(=O)N1)C(N)=O` [gAusIA [R5A]] (H-SCCAANPACRHNHPCV-NH2; disulfide 2-9, 3-15) showed an IC50 of more than 100 µM.

As for `CC(C)[C@H](NC(=O)[C@@H]1CSSC[C@@H]2NC(=O)[C@@H](NC(=O)[C@@H](N)CO)CSSC[C@H](NC(=O)[C@H](C)NC(=O)[C@@H]3CCCN3C(=O)[C@H](CC(N)=O)NC(=O)[C@H](CO)NC(=O)[C@H](C)NC2=O)C(=O)N[C@@H](CCCNC(=N)N)C(=O)N[C@@H](Cc2c[nH]cn2)C(=O)N[C@@H](CC(N)=O)C(=O)N[C@@H](Cc2c[nH]cn2)C(=O)N2CCC[C@H]2C(=O)N1)C(N)=O` [gAusIA [R5S]] (H-SCCASNPACRHNHPCV-NH2; disulfide 2-9, 3-15), the IC50 was more than 100 µM. As for `CC(C)[C@H](NC(=O)[C@@H]1CSSC[C@@H]2NC(=O)[C@@H](NC(=O)[C@@H](N)CO)CSSC[C@H](NC(=O)[C@H](C)NC(=O)[C@@H]3CCCN3C(=O)[C@H](CC(N)=O)NC(=O)[C@H](CCCNC(=N)N)NC(=O)[C@H](C)NC2=O)C(=O)N[C@@H](C)C(=O)N[C@@H](Cc2c[nH]cn2)C(=O)N[C@@H](CC(N)=O)C(=O)N[C@@H](Cc2c[nH]cn2)C(=O)N2CCC[C@H]2C(=O)N1)C(N)=O` [gAusIA [R10A]] (H-SCCARNPACAHNHPCV-NH2; disulfide 2-9, 3-15), the IC50 was more than 100 µM. Turning to `CC(C)[C@H](NC(=O)[C@@H]1CSSC[C@@H]2NC(=O)[C@@H](NC(=O)CN)CSSC[C@H](NC(=O)[C@H](C)NC(=O)[C@@H]3CCCN3C(=O)[C@H](CC(N)=O)NC(=O)[C@H](CCCNC(=N)N)NC(=O)[C@H](C)NC2=O)C(=O)N[C@@H](CCCNC(=N)N)C(=O)N[C@@H](Cc2c[nH]cn2)C(=O)N[C@@H](CC(N)=O)C(=O)N[C@@H](Cc2c[nH]cn2)C(=O)N2CCC[C@H]2C(=O)N1)C(N)=O` [gAusIA [S1G]] (H-GCCARNPACRHNHPCV-NH2; disulfide 2-9, 3-15), the “Ratio (IC50 ratio between gAusIA/rAusIA and its corresponding analogues)” value came to 0.70; the “antagonistic activity / potency at α7-containing nAChRs in words” value is on record as “comparable potency to gAusIA”.

Staying with this assay, now noted: SEM.
`CC(C)[C@H](NC(=O)[C@@H]1CSSC[C@@H]2NC(=O)[C@@H](NC(=O)[C@@H](N)CO)CSSC[C@H](NC(=O)[C@H](C)NC(=O)[C@@H]3CCCN3C(=O)[C@H](CC(N)=O)NC(=O)[C@H](CO)NC2=O)C(=O)N[C@@H](CCCNC(=N)N)C(=O)N[C@@H](Cc2c[nH]cn2)C(=O)N[C@@H](CC(N)=O)C(=O)N[C@@H](Cc2c[nH]cn2)C(=O)N2CCC[C@H]2C(=O)N1)C(N)=O` [gAusIA [A4S ∆5]] (H-SCCSNPACRHNHPCV-NH2; disulfide 2-8, 3-14) came in with an IC50 of 0.428 ± 0.112 µM. The compound `CC(C)[C@H](NC(=O)[C@@H]1CSSC[C@@H]2NC(=O)[C@@H](NC(=O)[C@@H](N)CO)CSSC[C@H](NC(=O)[C@H](C)NC(=O)[C@@H]3CCCN3C(=O)[C@H](CC(N)=O)NC(=O)[C@H](CCCNC(=N)N)NC(=O)[C@H](CO)NC2=O)C(=O)N[C@@H](CCCNC(=N)N)C(=O)N[C@@H](Cc2c[nH]cn2)C(=O)N[C@@H](CC(N)=O)C(=O)N[C@@H](Cc2c[nH]cn2)C(=O)N2CCC[C@H]2C(=O)N1)C(N)=O` [gAusIA [A4S]] (H-SCCSRNPACRHNHPCV-NH2; disulfide 2-9, 3-15) displayed an IC50 of 70 ± 12.9 µM. In turn, `CC(C)[C@H](NC(=O)[C@@H]1CSSC[C@@H]2NC(=O)[C@@H](NC(=O)[C@@H](N)CO)CSSC[C@H](NC(=O)[C@H](C)NC(=O)[C@@H]3CCCN3C(=O)[C@H](CC(N)=O)NC(=O)[C@H](CCCNC(=N)N)NC2=O)C(=O)N[C@@H](CCCNC(=N)N)C(=O)N[C@@H](Cc2c[nH]cn2)C(=O)N[C@@H](CC(N)=O)C(=O)N[C@@H](Cc2c[nH]cn2)C(=O)N2CCC[C@H]2C(=O)N1)C(N)=O` [gAusIA [∆4]] (H-SCCRNPACRHNHPCV-NH2; disulfide 2-8, 3-14) gave an IC50 of 1 ± 0.03 µM. For `C[C@@H]1NC(=O)[C@@H]2CSSC[C@@H](C(N)=O)NC(=O)[C@@H]3CCCN3C(=O)[C@H](Cc3c[nH]cn3)NC(=O)[C@H](CC(N)=O)NC(=O)[C@H](Cc3c[nH]cn3)NC(=O)[C@H](CCCNC(=N)N)NC(=O)[C@H](CSSC[C@H](NC(=O)[C@@H](N)CO)C(=O)N2)NC(=O)[C@H](C)NC(=O)[C@@H]2CCCN2C(=O)[C@H](CC(N)=O)NC1=O` [gAusIA [∆5 ∆16]] (H-SCCANPACRHNHPC-NH2; disulfide 2-8, 3-14), it took 0.241 ± 0.062 µM to reach half-maximal inhibition (IC50). As to `CC(C)[C@H](NC(=O)[C@@H]1CSSC[C@@H]2NC(=O)[C@@H](NC(=O)[C@@H](N)CO)CSSC[C@H](NC(=O)[C@H](C)NC(=O)[C@@H]3CCCN3C(=O)[C@H](CC(N)=O)NC(=O)[C@H](C)NC2=O)C(=O)N[C@@H](CCCNC(=N)N)C(=O)N[C@@H](Cc2c[nH]cn2)C(=O)N[C@@H](CC(N)=O)C(=O)N[C@@H](Cc2c[nH]cn2)C(=O)N2CCC[C@H]2C(=O)N1)C(N)=O` [gAusIA [∆5]] (H-SCCANPACRHNHPCV-NH2; disulfide 2-8, 3-14), the IC50 worked out at 0.59 ± 0.08 µM. On to `C[C@@H]1NC(=O)[C@@H]2CSSC[C@@H](C(N)=O)NC(=O)[C@@H]3CCCN3C(=O)[C@H](Cc3c[nH]cn3)NC(=O)[C@H](CC(N)=O)NC(=O)[C@H](Cc3c[nH]cn3)NC(=O)[C@H](CCCNC(=N)N)NC(=O)[C@H](CSSC[C@H](NC(=O)[C@@H](N)CO)C(=O)N2)NC(=O)[C@H](C)NC(=O)[C@@H]2CCCN2C(=O)[C@H](CC(N)=O)NC(=O)[C@H](CCCNC(=N)N)NC1=O` [gAusIA [∆16]] (H-SCCARNPACRHNHPC-NH2; disulfide 2-9, 3-15), for which half-maximal inhibition (IC50) was put at 12 ± 2.3 µM. The compound `CC[C@H](C)[C@@H]1NC(=O)[C@H](CC(N)=O)NC(=O)[C@@H]2CCCN2C(=O)[C@H](CC(N)=O)NC(=O)[C@H](CC(N)=O)NC(=O)[C@H](C(C)C)NC(=O)[C@H](CCCNC(=N)N)NC(=O)[C@@H]2CSSC[C@H](NC(=O)CNC(=O)[C@@H](N)CO)C(=O)N[C@@H](CSSC[C@@H](C(N)=O)NC1=O)C(=O)N[C@@H](CCCNC(=N)N)C(=O)N[C@@H](CC(N)=O)C(=O)N1CCC[C@H]1C(=O)N[C@@H](C)C(=O)N2` [gLsIA [S5R]] (H-SGCCRNPACRVNNPNIC-NH2; disulfide 3-9, 4-17) had a 50% inhibitory concentration (IC50) of 0.24 ± 0.04 µM.

For `CC[C@H](C)[C@@H]1NC(=O)[C@H](CC(N)=O)NC(=O)[C@@H]2CCCN2C(=O)[C@H](CC(N)=O)NC(=O)[C@H](CC(N)=O)NC(=O)[C@H](C(C)C)NC(=O)[C@H](CCCNC(=N)N)NC(=O)[C@@H]2CSSC[C@H](NC(=O)CNC(=O)[C@@H](N)CO)C(=O)N[C@@H](CSSC[C@@H](C(N)=O)NC1=O)C(=O)N[C@@H](C)C(=O)N[C@@H](CO)C(=O)N[C@@H](CC(N)=O)C(=O)N1CCC[C@H]1C(=O)N[C@@H](C)C(=O)N2` [gLsIA [∇A5]] (H-SGCCASNPACRVNNPNIC-NH2; disulfide 3-10, 4-18), the IC50 turned out to be 48 ± 13.2 µM. With `CC[C@H](C)[C@@H]1NC(=O)[C@H](CC(N)=O)NC(=O)[C@@H]2CCCN2C(=O)[C@H](CC(N)=O)NC(=O)[C@H](CC(N)=O)NC(=O)[C@H](C(C)C)NC(=O)[C@H](CCCNC(=N)N)NC(=O)[C@@H]2CSSC[C@H](NC(=O)CNC(=O)[C@@H](N)CO)C(=O)N[C@@H](CSSC[C@@H](C(N)=O)NC1=O)C(=O)N[C@@H](CO)C(=O)N[C@@H](CCCNC(=N)N)C(=O)N[C@@H](CC(N)=O)C(=O)N1CCC[C@H]1C(=O)N[C@@H](C)C(=O)N2` [gLsIA [∇R6]] (H-SGCCSRNPACRVNNPNIC-NH2; disulfide 3-10, 4-18), it took 8 ± 0.52 µM to reach half-maximal inhibition (IC50).

As for `CC(C)[C@H](NC(=O)[C@@H]1CSSC[C@H](NC(=O)[C@@H](N)CO)C(=O)N[C@H]2CSSC[C@H](NC(=O)[C@H](C)NC(=O)[C@@H]3CCCN3C(=O)[C@H](CC(N)=O)NC(=O)[C@H](CO)NC2=O)C(=O)N[C@@H](CCCNC(=N)N)C(=O)N[C@@H](Cc2c[nH]cn2)C(=O)N[C@@H](CC(N)=O)C(=O)N[C@@H](Cc2c[nH]cn2)C(=O)N2CCC[C@H]2C(=O)N1)C(N)=O` [rAusIA [A4S ∆5]] (H-SCCSNPACRHNHPCV-NH2; disulfide 2-14, 3-8), the IC50 was 29 ± 1.1 µM. The same measure, in the same setting: the figure for `CC(C)[C@H](NC(=O)[C@@H]1CSSC[C@H](NC(=O)[C@@H](N)CO)C(=O)N[C@H]2CSSC[C@H](NC(=O)[C@H](C)NC(=O)[C@@H]3CCCN3C(=O)[C@H](CC(N)=O)NC(=O)[C@H](CCCNC(=N)N)NC(=O)[C@H](CO)NC2=O)C(=O)N[C@@H](CCCNC(=N)N)C(=O)N[C@@H](Cc2c[nH]cn2)C(=O)N[C@@H](CC(N)=O)C(=O)N[C@@H](Cc2c[nH]cn2)C(=O)N2CCC[C@H]2C(=O)N1)C(N)=O` [rAusIA [A4S]] (H-SCCSRNPACRHNHPCV-NH2; disulfide 2-15, 3-9) is 32 ± 7.3 µM; for `CC(C)C[C@@H]1NC(=O)[C@H](CCCNC(=N)N)NC(=O)[C@@H]2CSSC[C@H](NC(=O)[C@@H](NC(=O)[C@@H](N)CO)CSSC[C@@H](C(=O)N[C@H](C(N)=O)C(C)C)NC(=O)[C@@H]3CCCN3C(=O)[C@H](Cc3c[nH]cn3)NC(=O)[C@H](CC(N)=O)NC1=O)C(=O)N[C@@H](C)C(=O)N[C@@H](CCCNC(=N)N)C(=O)N[C@@H](CC(N)=O)C(=O)N1CCC[C@H]1C(=O)N[C@@H](C)C(=O)N2` [rAusIA [H11L]] (H-SCCARNPACRLNHPCV-NH2; disulfide 2-15, 3-9) it is 30 ± 2.2 µM.
